Publication PMC5075052, “Modulation of the Substitution Pattern of 5-Aryl-2-Aminoimidazoles Allows Fine-Tuning of Their Antibiofilm Activity Spectrum and Toxicity” (Antimicrobial Agents and Chemotherapy, 2016)
Like-named read-outs stand apart in the source and are kept apart here. One block for each compound: values may come before it.

Experiments:
[1] = system: S. Typhimurium ATCC 14028; experiment: Monospecies bacterial biofilm inhibition, static peg assay; format: cell-based, Salmonella enterica serovar Typhimurium; details: Salmonella enterica, S. Typhimurium ATCC 14028, 25°C
Method: (§1) A static peg assay, described previously ([27], [74]), was used for bacterial biofilm formation. The Calgary biofilm device consists of a platform carrying 96 polystyrene pegs (Nunc no. 445497) that fits as a microtiter plate lid, with 1 peg hanging into each microtiter plate well (Nunc no. 269789). Twofold serial dilutions of the compounds (dissolved in 100% dimethyl sulfoxide [DMSO] or ethanol) in 100 μl liquid broth (TSB diluted 1/20) per well were prepared in the microtiter plate in duplicate or triplicate with a maximum concentration of 1,600 μM and a minimum concentration of 0.8 μM. Subsequently, an overnight culture of S. Typhimurium ATCC 14028, P. aeruginosa PA14, E. coli TG1, S. epidermidis, S. aureus SH1000, or S. aureus ATCC 6538 (all grown in LB) was diluted 1:100 into TSB diluted 1/20 (or TSB for S. epidermidis, S. aureus SH1000, and S. aureus ATCC 6538), whereas overnight cultures of S. liquefaciens MG44 and B. cepacia LMG1222T were diluted 1:50 into TSB diluted 1/20. P. gingivalis ATCC 33277 cultures were diluted in TSB diluted 1/20 to have a final concentration of 1 × 10^8 cells/ml. Next, 100 μl was added to each well of the microtiter plate, resulting in a total volume of 200 μl medium per well (final concentration range of compounds, 800 μM [2% DMSO or ethanol] to 0.4 μM [0.001% DMSO or ethanol]). In the next step, the pegged lid was placed on the microtiter plate and the plate was incubated for 24 h or 48 h at 25°C or 37°C without shaking. At 37°C, the plates were placed in a sealed container with wet towels on the bottom to prevent evaporation of the growth medium. Biofilms of P. gingivalis ATCC 33277 were grown anaerobically at 37°C for 72 h. During this incubation period, biofilms were formed on the surface of the pegs. After incubation, the optical density at 600 nm (OD600) for the planktonic cells in the microtiter plate was measured using a Synergy MX multimode reader (BioTek, Winooski, VT). This gives a first indication of the effect of the compounds on planktonic growth. For quantification of biofilm formation, the pegs were washed once in 200 μl PBS. The remaining attached bacteria were stained for 30 min with 200 μl 0.1% (wt/vol) crystal violet in an isopropanol-methanol-PBS solution (1:1:18, vol/vol). Excess stain was rinsed off by placing the pegs in a 96-well plate filled with 200 μl distilled water per well. After air drying of the pegs (30 min), the dye bound to the adherent biofilm was extracted with 30% glacial acetic acid (200 μl per well of a 96-well plate). The optical density at 570 nm (OD570) of each well was measured using a Synergy MX multimode reader (BioTek, Winooski, VT). The concentration of each compound needed to inhibit biofilm formation by 50% (BIC50) and the concentration of each compound needed to inhibit planktonic growth by 50% (IC50) were determined from the concentration gradient by using nonlinear curve fitting (GraphPad Prism software, version 5; GraphPad Software, Inc., La Jolla, CA). In the same assay, the effect on planktonic growth was evaluated. The activity was considered biofilm specific if the BIC50 was at least two times lower than the IC50. Data represent the means from at least 3 technical repeats with the corresponding 95% confidence intervals (provided in the supplemental material).

S. liquefaciens MG44 = experiment: as above; format: cell-based, Serratia liquefaciens; details: Serratia liquefaciens
Method: as §1

B. cepacia LMG1222T = experiment: as above; format: cell-based, Burkholderia cepacia; details: Burkholderia cepacia, 25°C
Method: as §1

[2] = system: E. coli TG1 + P. aeruginosa PA14; experiment: Mixed-species E. coli-P. aeruginosa biofilm assay (peg, crystal violet); format: cell-based, Escherichia coli + Pseudomonas aeruginosa
Method: Overnight cultures of E. coli TG1 and P. aeruginosa PA14 were diluted 1/100 in the same vial of TSB diluted 1/20 to form a mixed-culture suspension. Next, 2-fold serial dilutions of the compounds (dissolved in 100% DMSO or ethanol) in 100 μl liquid broth (TSB diluted 1/20) per well were prepared in the microtiter plate of the Calgary biofilm device (Nunc no. 269789) in duplicate or triplicate with a maximum concentration of 1,600 μM and a minimum concentration of 0.8 μM. One hundred microliters of the mixed-culture suspension was added to each well of the microtiter plate, resulting in a total volume of 200 μl medium per well (final concentration range of compounds, 800 μM [2% DMSO or ethanol] to 0.4 μM [0.001% DMSO or ethanol]). The pegged lid was placed on the microtiter plate, and the plate was incubated for 72 h at 37°C, which allowed biofilm formation on the pegs (Nunc no. 269789) of the Calgary biofilm device. After 72 h, the biofilm was colored with crystal violet as described above ([74]). The OD570 (biofilm cells) and OD600 (planktonic cells) were measured, and the BIC50 and the IC50, respectively, were calculated.

[3] = system: C. albicans SC5314 + S. epidermidis; experiment: Mixed C. albicans-S. epidermidis biofilm, selective plating CFU; format: cell-based, Candida albicans + Staphylococcus epidermidis; details: 37°C
Method: Overnight cultures of C. albicans SC5314 (YPD) and S. epidermidis (TSB) were diluted in RPMI 1640 medium to OD600s of 0.05 and 0.01, respectively. Equal volumes of the cell suspensions of each organism were mixed before use. One hundred microliters of this mixed cell suspension together with compound was added to the wells of a round-bottom microtiter plate (TPP; Trasadingen, Switzerland) in triplicate. Concentrations of 25 μM (0.0625% DMSO or ethanol) and 100 μM (0.25% DMSO or ethanol) were tested. After 24 h of incubation at 37°C, the biofilms were washed with PBS and fresh medium with or without compounds was added. After a further incubation for 48 h at 37°C, the biofilms were washed with PBS, after which the cells were resuspended in 100 μl of PBS by scraping them off, sonicated (1 min, 45 kHz; USC300-T; VWR, Radnor, PA, USA), and vigorously pipetted up and down. Finally, the biofilm cells were diluted in PBS and plated on YPD agar plates containing 100 mg/liter ampicillin and TSA plates containing 25 mg/liter amphotericin B to determine the number of fungal and bacterial CFU, respectively, after 2 days of incubation at 37°C. The percentage of C. albicans SC5314 and S. epidermidis cells relative to the number of cells after DMSO or ethanol control treatment was determined.

[4] = S. liquefaciens MG44, 25°C, read-out: BIC50
[5] = S. liquefaciens MG44, 25°C, read-out: IC50 (planktonic growth)
[6] = read-out: IC50 (planktonic growth)
[7] = 72 h, mixed E. coli TG1 + P. aeruginosa PA14, 37°C, read-out: IC50 (planktonic growth)
[8] = 72 h, mixed E. coli TG1 + P. aeruginosa PA14 biofilm, 37°C, read-out: BIC50
[9] = 25 μM compound, read-out: % CFU survival, C. albicans
[10] = 25 μM compound, read-out: % CFU survival, S. epidermidis
[11] = 100 μM compound, read-out: % CFU survival, C. albicans
[12] = 100 μM compound, read-out: % CFU survival, S. epidermidis
[13] = mixed E. coli TG1 + P. aeruginosa PA14, 37°C, read-out: IC50 (planktonic growth)
[14] = mixed E. coli TG1 + P. aeruginosa PA14 biofilm, 37°C, read-out: BIC50

IC50 [2, 13]: > 400 µM
IC50 [2, 14]: 6.6 µM
SMILES: CCCCCCCCn1c(-c2ccccc2)cnc1NCC(C)C [Compound 8a]
activity at 25 µM [3, 9]: 62.4%
activity at 100 µM [3, 11]: 1%
activity at 100 µM [3, 12]: 1%

IC50 [2, 13]: > 400 µM
IC50 [2, 14]: > 400 µM
SMILES: CCCCCCCCn1c(-c2ccc(Cl)cc2)cnc1NCC(C)C [Compound 8b]
activity at 25 µM [3, 9]: 2%
activity at 25 µM [3, 10]: 6.1%
activity at 100 µM [3, 11]: 18.2%
activity at 100 µM [3, 12]: 0.7%

IC50 [2, 13]: > 400 µM
IC50 [2, 14]: > 400 µM
SMILES: CCCCCCCCn1c(-c2ccc(Br)cc2)cnc1NCC(C)C [Compound 8c]
activity at 25 µM [3, 9]: 3.2%
activity at 25 µM [3, 10]: 637%
activity at 100 µM [3, 11]: 8.4%
activity at 100 µM [3, 12]: 966%

IC50 [2, 13]: > 400 µM
IC50 [2, 14]: > 400 µM
SMILES: CCCCCCCCn1c(-c2ccc(Cl)c(Cl)c2)cnc1NCC(C)C [Compound 8d]
activity at 25 µM [3, 9]: 2.5%
activity at 100 µM [3, 11]: 1.4%

IC50 [2, 13]: > 400 µM
IC50 [2, 14]: 101 µM
SMILES: CCCCCCCCn1c(-c2ccccc2)cnc1NC1CCCC1 [Compound 8e]
activity at 25 µM [3, 9]: 10%
activity at 25 µM [3, 10]: 93.1%
activity at 100 µM [3, 11]: 2.5%
activity at 100 µM [3, 12]: 0%

IC50 [2, 13]: > 400 µM
IC50 [2, 14]: 400 µM
SMILES: CCCCCCCCn1c(-c2ccc(Cl)cc2)cnc1NC1CCCC1 [Compound 8f]
activity at 25 µM [3, 9]: 2.9%
activity at 25 µM [3, 10]: 2.5%
activity at 100 µM [3, 11]: 7.2%
activity at 100 µM [3, 12]: 0.3%

IC50 [2, 13]: > 400 µM
IC50 [2, 14]: > 400 µM
SMILES: CCCCCCCCn1c(-c2ccc(Br)cc2)cnc1NC1CCCC1 [Compound 8g]
activity at 25 µM [3, 9]: 3.3%
activity at 25 µM [3, 10]: 0%
activity at 100 µM [3, 11]: 5.9%
activity at 100 µM [3, 12]: 0%

IC50 [2, 13]: > 400 µM
IC50 [2, 14]: > 400 µM
SMILES: CCCCCCCCn1c(-c2ccc(Cl)c(Cl)c2)cnc1NC1CCCC1 [Compound 8h]
activity at 25 µM [3, 9]: 6.7%
activity at 25 µM [3, 10]: 2%
activity at 100 µM [3, 11]: 3.5%
activity at 100 µM [3, 12]: 2.2%

Second part, the compound before the results:

SMILES: CCCCCn1c(-c2ccccc2)cnc1N [Compound 1]
IC50 ([1]; read-out: BIC50): 48.4 µM
IC50 (S. liquefaciens MG44; [4]): 168 µM
IC50 (S. liquefaciens MG44; [5]): 177 µM
IC50 (B. cepacia LMG1222T; read-out: BIC50): ~356 µM
IC50 (B. cepacia LMG1222T; [6]): > 400 µM
IC50 [2, 7]: 60.7 µM
IC50 [2, 8]: 74.3 µM

SMILES: CCCCCCCCn1c(-c2ccc(Cl)cc2)cnc1N [Compound 2]
IC50 ([1]; read-out: BIC50): ~5.9 µM
IC50 (S. liquefaciens MG44; [4]): 18.8 µM
IC50 (S. liquefaciens MG44; [5]): 38 µM
IC50 (B. cepacia LMG1222T; read-out: BIC50): 145 µM
IC50 (B. cepacia LMG1222T; [6]): > 400 µM
IC50 [2, 7]: 19.9 µM
IC50 [2, 8]: 36.8 µM
% CFU survival, C. albicans ([3]; 25 μM compound): completely inhibited
% CFU survival, S. epidermidis ([3]; 25 μM compound): completely inhibited
activity at 25 µM [3, 9]: < 0.6%
activity at 25 µM [3, 10]: 0%
activity at 100 µM [3, 11]: < 0.2%
activity at 100 µM [3, 12]: 0%

SMILES: CC(C)CNc1ncc(-c2ccc(Cl)cc2)[nH]1 [Compound 3]
IC50 ([1]; read-out: BIC50): 2 µM
IC50 (S. liquefaciens MG44; MG44, read-out: BIC50): 10.4 µM
IC50 (S. liquefaciens MG44; MG44, read-out: IC50 (planktonic growth)): 154 µM
IC50 (B. cepacia LMG1222T; read-out: BIC50): 88.1 µM
IC50 (B. cepacia LMG1222T; [6]): > 400 µM
IC50 [2, 7]: > 400 µM
IC50 [2, 8]: 7.4 µM
activity at 25 µM [3, 9]: 58.3%
activity at 25 µM [3, 10]: 64.6%
activity at 100 µM [3, 11]: 235%
activity at 100 µM [3, 12]: 13.2%

SMILES: CCCCNc1ncc(-c2ccc(Br)cc2)[nH]1 [Compound 4]
IC50 ([1]; read-out: BIC50): 7.1 µM
IC50 (S. liquefaciens MG44; [4]): 4.4 µM
IC50 (S. liquefaciens MG44; [5]): 118 µM
IC50 (B. cepacia LMG1222T; read-out: BIC50): 189 µM
IC50 (B. cepacia LMG1222T; [6]): > 400 µM
IC50 [2, 7]: > 400 µM
IC50 [2, 8]: 17.8 µM

SMILES: Clc1ccc(-c2cnc(NC3CCCC3)[nH]2)cc1 [Compound 5]
IC50 ([1]; read-out: BIC50): 4.4 µM
IC50 (S. liquefaciens MG44; [4]): 8.8 µM
IC50 (S. liquefaciens MG44; [5]): 125 µM
IC50 (B. cepacia LMG1222T; read-out: BIC50): 331 µM
IC50 (B. cepacia LMG1222T; [6]): > 400 µM
IC50 [2, 7]: > 400 µM
IC50 [2, 8]: 0.5 µM
activity at 25 µM [3, 9]: 168%
activity at 25 µM [3, 10]: 72%
% CFU survival, S. epidermidis ([3]; 100 μM compound): complete inhibition
activity at 100 µM [3, 11]: 595%
activity at 100 µM [3, 12]: 2.3%

SMILES: Brc1ccc(-c2cnc(NCCn3cc(C4CC4)nn3)[nH]2)cc1 [Compound 6]
IC50 ([1]; read-out: BIC50): 2 µM
IC50 [1, 6]: 2.4 µM
IC50 (S. liquefaciens MG44; [4]): 63.3 µM
IC50 (S. liquefaciens MG44; [5]): > 400 µM
IC50 (B. cepacia LMG1222T; read-out: BIC50): > 400 µM
IC50 (B. cepacia LMG1222T; [6]): > 400 µM
IC50 [2, 7]: > 400 µM
IC50 [2, 8]: 34.6 µM
